# Results: patent US6482802B1 (Endowment for Research in Human Biology, Inc., priority 1998, dated 2002)
# “And” between values parts separate entries of the source, which are not always exact repeats. Equal entries are not always repeated.
# Assays:
# HUVE cells [1] = experiment: HUVE cell number with neomycin alone, no angiogenic factor; format: cell-based, human; settings: 48 hrs, 0 μM: 31400 ± 400
# Method: (§1) The cells were incubated at 37° C. under humidified air containing 5% CO2 for 48 hrs. […] Cell numbers were determined with a Coulter counter.
# [2] = test system: chorioallantoic membrane (CAM) of chick embryos; experiment: CAM assay, angiogenin-induced angiogenesis; format: in vivo; settings: for % Positive (angiogenic response): angiogenin alone 55, water 20
# Method: (§2) Angiogenesis was measured on the CAM by the method of Knighton et al. (Knighton et al., 1977, Br. J. Cancer 35:347-356) essentially as described (Fett et al., 1985, Biochemistry 24:5480-5486). Fertilized chicken eggs were kept at 18° C. for 2 days and then incubated in a humidified environment at 37° C. for 3 days. Albumin was aspirated from the embryos and after 24 hours, a “window” was cut through the shell and covered with clear tape. […] After 48-68 hours at 37° C., the growth of blood vessels was observed microscopically and recorded as either positive or negative. A positive response (i.e., an angiogenic response) has a typical “spokewheel” appearance.
# HUVE cells [3] = experiment: EGF-induced proliferation of HUVE cells; format: cell-based, human; settings: for EGF Cell No.: EGF 5 ng/ml, 48 hrs, 0 μM 5300 ± 300
# Method: as §1
# [4] = test system: MDA-MB-435 human breast tumor cells; format: in vivo
# Method: MDA-MA-435 human breast tumor cells, which are estrogen receptor negative, were injected directly into the mammary fat pad of athymic mice. Age-matched athymic female mice were assigned to treatment groups of 8 mice each and anesthetized with ketamine (212 mg/kg body weight) and xylazine (21.2 mg/kg body weight) given intraperitoneally and allowed to stabilize under anesthesia for 15 min. A heating pad was used to maintain their body temperature throughout the procedure to minimize stress. Betadine followed by 70% alcohol was swabbed onto the skin of the left lateral thorax. An incision of 6 mm in length was made through the skin in the area of the left lateral thorax behind the left front leg and the mammary fat pad was exposed by using gentle pressure with two fingers to separate the skin at the incision site. MDA-MB-435 human breast tumor cells were harvested by trypsinization, washed in HBSS, counted using trypan blue exclusion to determine cell viability, and 10,000 cells in a total volume of 20 μl were injected into the fat pad using a 27 gauge needle. The incision was closed with 2 drops of Vetbond veterinarian tissue adhesive and the mouse was allowed to recover on the heating pad before returning to its cage. […] Mice were examined daily for tumor growth by gentle palpation of the lateral left thorax in the general area of the injection.
# [5] = test system: chorioallantoic membrane (CAM) of chick embryos; experiment: CAM assay, EGF-induced angiogenesis; format: in vivo; settings: for % Positive: EGF alone 69, water 21
# Method: as §2
# HUVE cells [6] = experiment: Angiogenin-induced proliferation of HUVE cells; format: cell-based, human
# Method: HUVE cells were seeded at 4×10^3 cells/cm^2 in attachment factor (Cell Systems Corp.)-coated 35 mm dishes in HE-SFM, and incubated with 1 μg/ml angiogenin in the presence or absence of inhibitors at 37° C. for 48 hr. Cell were detached by trypsinization and cell numbers were determined with a Coulter counter.
# HUVE cells [7] = experiment: bFGF-induced proliferation of HUVE cells (neomycin dose series); format: cell-based, human; settings: for bFGF Cell No.: bFGF 10 ng/ml, 48 hrs, 0 μM: 59600 ± 2600
# Method: as §1
# [8] = test system: nuclear translocation of aFGF in HUVE cells; experiment: Nuclear translocation of 125I-aFGF in HUVE cells; format: cell-based, human; settings: for aFGF Counts (nuclear fraction): 125I-aFGF 50 ng/ml, 0 μM: 7800 ± 100
# Method: Inhibition of nuclear translocation of angiogenic factors in HUVE cells was performed in the following manner. […] The cell pellet was washed once with PBS and lysed with 0.5% triton X-100 in PBS. […] Radioactivity in the nuclear fraction was determined with a gamma counter.
substance,measurement,setting,value
neomycin,Control Cell No.,HUVE cells [1]; neomycin 25 μM,29800 ± 300
same,Control Cell No.,HUVE cells [1]; neomycin 50 μM,28800 ± 1000
same,Control Cell No.,HUVE cells [1]; neomycin 100 μM,27900 ± 500
same,Control Cell No.,HUVE cells [1]; neomycin 150 μM,27400 ± 200
same,Control Cell No.,HUVE cells [1]; neomycin 200 μM,26300 ± 400
same,dose that abolishes the angiogenic activity of angiogenin,[2]; angiogenin 10 ng,20 ng per egg
same,% Positive (angiogenic response),[2]; angiogenin 10 ng + neomycin 4 ng,40%
same,% Positive (angiogenic response),[2]; angiogenin 10 ng + neomycin 20 ng,20%
same,% Positive (angiogenic response),[2]; angiogenin 10 ng + neomycin 200 ng,25%
same,EGF Inhib. % of cell proliferation,HUVE cells [3]; neomycin 25 μM,17%
same,EGF Cell No.,HUVE cells [3]; neomycin 25 μM,46700 ± 600
same,EGF Inhib. % of cell proliferation,HUVE cells [3]; neomycin 50 μM,35%
same,EGF Cell No.,HUVE cells [3]; neomycin 50 μM,41700 ± 600
same,EGF Inhib. % of cell proliferation,HUVE cells [3]; neomycin 100 μM,59%
same,EGF Cell No.,HUVE cells [3]; neomycin 100 μM,35700 ± 1100
same,EGF Inhib. % of cell proliferation,HUVE cells [3]; neomycin 150 μM,71%
same,EGF Cell No.,HUVE cells [3]; neomycin 150 μM,32800 ± 200
same,EGF Inhib. % of cell proliferation,HUVE cells [3]; neomycin 200 μM,100%
same,EGF Cell No.,HUVE cells [3]; neomycin 200 μM,26000 ± 900
same,IC50,"HUVE cells [3]; read-out: IC50, EGF-induced proliferation of endothelial cells",~100 µM
same,establishment of MDA-MB-435 human breast tumors,"[4]; 60 mg/kg body weight i.p., daily 20 days, then 4 times per week 42 days, 8 mice",completely inhibited the establishment
same,mice with tumors by day 56,"[4]; 60 mg/kg i.p., all 8 control mice developed tumors",none of the mice had tumors
same,% Inhibition of angiogenic activity,[5]; EGF 10 ng + neomycin 20 ng,19%
same,Positive eggs,"[5]; EGF 10 ng + neomycin 20 ng, 15 total eggs",9
same,% Positive,[5]; EGF 10 ng + neomycin 20 ng,60%
same,% Inhibition of angiogenic activity,[5]; EGF 10 ng + neomycin 200 ng,81%
same,Positive eggs,"[5]; EGF 10 ng + neomycin 200 ng, 30 total eggs",9
same,% Positive,[5]; EGF 10 ng + neomycin 200 ng,30%
same,dosage that inhibited EGF-induced angiogenesis,[5]; in vivo,about 200 ng per embryo
same,IC50,"HUVE cells [6]; HUVE cells, angiogenin 1 μg/ml, 48 hr, read-out: IC50, angiogenin-induced EC proliferation",~10 µM and < 10 µM
same,Cell number,"HUVE cells [6]; aminoglycoside 100 μM, with angiogenin 1 μg/ml, none: 62,500 ± 100","53,400 ± 1,900"
same,Cell number,"HUVE cells [6]; aminoglycoside 100 μM, without angiogenin, none: 52,000 ± 100","52,700 ± 700"
same,percent of cell number in the presence of 1 μg/ml angiogenin relative to the corresponding control,"HUVE cells [6]; aminoglycoside 100 μM, none: 120",101%
same,inhibition of proliferative activity of angiogenin,"HUVE cells [6]; neomycin 5 μM, angiogenin 1 μg/ml, 48 hr",49%
same,inhibition of angiogenin-induced cell proliferation,"HUVE cells [6]; neomycin 25 μM, angiogenin 1 μg/ml, 48 hr",69%
same,angiogenin-induced cell proliferation,"HUVE cells [6]; neomycin 50 μM, angiogenin 1 μg/ml, 48 hr",completely abolished
same,effect of neomycin alone on cell proliferation,"HUVE cells [6]; no angiogenin, 48 hr",neither induced nor inhibited cell proliferation
same,bFGF Inhib. % of cell proliferation,HUVE cells [7]; neomycin 25 μM,19%
same,bFGF Cell No.,HUVE cells [7]; neomycin 25 μM,51500 ± 700
same,bFGF Inhib. % of cell proliferation,HUVE cells [7]; neomycin 50 μM,34%
same,bFGF Cell No.,HUVE cells [7]; neomycin 50 μM,45900 ± 1200
same,bFGF Inhib. % of cell proliferation,HUVE cells [7]; neomycin 100 μM,41%
same,bFGF Cell No.,HUVE cells [7]; neomycin 100 μM,42600 ± 200
same,bFGF Inhib. % of cell proliferation,HUVE cells [7]; neomycin 150 μM,49%
same,bFGF Cell No.,HUVE cells [7]; neomycin 150 μM,39900 ± 125
same,bFGF Inhib. % of cell proliferation,HUVE cells [7]; neomycin 200 μM,64%
same,bFGF Cell No.,HUVE cells [7]; neomycin 200 μM,34600 ± 400
same,IC50,"HUVE cells [7]; read-out: IC50, bFGF-induced proliferation of endothelial cells",~100 µM
same,aFGF % Inhib. of nuclear translocation,[8]; neomycin 10 μM,15%
same,aFGF Counts (nuclear fraction),[8]; neomycin 10 μM,6600 ± 100 cpm
same,aFGF % Inhib. of nuclear translocation,[8]; neomycin 50 μM,26%
same,aFGF Counts (nuclear fraction),[8]; neomycin 50 μM,5800 ± 100 cpm
same,aFGF % Inhib. of nuclear translocation,[8]; neomycin 100 μM,32%
same,aFGF Counts (nuclear fraction),[8]; neomycin 100 μM,5300 ± 100 cpm
same,aFGF % Inhib. of nuclear translocation,[8]; neomycin 150 μM,38%
same,aFGF Counts (nuclear fraction),[8]; neomycin 150 μM,4800 ± 100 cpm
same,aFGF % Inhib. of nuclear translocation,[8]; neomycin 200 μM,43%
same,aFGF Counts (nuclear fraction),[8]; neomycin 200 μM,4500 ± 200 cpm
